The source made the active and inactive calls.
What was measured:
[1] = biological target: Peroxisome proliferator-activated receptor gamma/Nuclear receptor corepressor 2 (Homo sapiens, UniProt P37231+Q9Y618); experiment: Counterscreen for NR2E3 inverse agonists: TR-FRET-based biochemical high throughput dose response assay to identify inverse agonists of the interaction between peroxisome proliferator-activated receptor gamma (PPARg) and nuclear receptor co-repressor 2 (NCOR2).; type: functional
[2] = biological target: Photoreceptor-specific nuclear receptor (Homo sapiens, UniProt Q9Y5X4); experiment: NR2E3 inverse agonists, dose response, biochemical, TR-FRET (AID 463256); type: functional
[3] = biological target: T1, Sphingosine 1-phosphate receptor 2 (Homo sapiens, UniProt O95136); experiment: Dose Response Cell Based Assay for Agonists of the S1P2 Receptor of Purchased Analogues. [Related pubchem assays: 729, 843, 854, 736 ]; type: functional
[4] = biological target: Genome polyprotein (Hepatitis C virus, UniProt Q2Q167); experiment: HCV core protein dimerization inhibitors, dose response, biochemical, TR-FRET (AID 2159); set-up: species or system Hepacivirus hominis;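 also: blocks dimerization of HCV core protein measured by TR-FRET between tagged core106 pairs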
[5] = biological target: Induced myeloid leukemia cell differentiation protein Mcl-1 (Homo sapiens, UniProt Q07820); experiment: MCL1-BIM BH3 interaction inhibitors, dose response, biochemical, fluorescence polarization, BIM-BH3 peptide, 1536-well (AID 2217)
[6] = biological target: Bcl-2-like protein 1 (Homo sapiens, UniProt Q07817); experiment: BCL-XL inhibitors, dose response, selectivity assay for MCL1 inhibitor project, biochemical, fluorescence polarization, 1536-well (AID 2218)
[7] = biological target: Protein Tat (Human immunodeficiency virus type 1 group M subtype B (isolate HXB2)(HIV-1), UniProt P04608); type: functional;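 also: tat binding to TAR RNA read out by fluorescence polarization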
[8] = inhibitors of Vif binding to APOBEC3G peptide, primary screen, biochemical, TR-FRET, GST-Vif 1-94, biotin-A3G peptide, dose response retest (AID 1117319); type: functional;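 also: TR-FRET signal of purified GST-Vif binding a biotinylated A3G peptide; inhibitors lower the FRET signal by blocking Vif and A3G binding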
[9] = biological target: Estrogen receptor beta (Homo sapiens, UniProt Q92731);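 also: recombinant ER-beta bound to coactivator SRC1 peptide in presence of estradiol agonist; inhibitors block coactivator peptide binding and lower the FRET signal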
[10] = biological target: Prothrombin (Homo sapiens, UniProt P00734); experiment: Thrombin 1536 HTS Dose Response Confirmation. [Related pubchem assays: 1046 (Thrombin 1536 HTS; hits were confirmed in this assay)]; type: functional
[11] = M. tuberculosis H37Rv growth inhibitors, H37Rv strain (AID 1626); type: functional
[12] = biological target: T2, Leucine aminopeptidase (Plasmodium falciparum 3D7, UniProt Q8IL11); experiment: P. falciparum M17LAP inhibitors, primary screen, biochemical, fluorogenic H-Leu-NHMec substrate, 1536-well (AID 1619); type: functional
T2 sequence (Q8IL11 whole entry): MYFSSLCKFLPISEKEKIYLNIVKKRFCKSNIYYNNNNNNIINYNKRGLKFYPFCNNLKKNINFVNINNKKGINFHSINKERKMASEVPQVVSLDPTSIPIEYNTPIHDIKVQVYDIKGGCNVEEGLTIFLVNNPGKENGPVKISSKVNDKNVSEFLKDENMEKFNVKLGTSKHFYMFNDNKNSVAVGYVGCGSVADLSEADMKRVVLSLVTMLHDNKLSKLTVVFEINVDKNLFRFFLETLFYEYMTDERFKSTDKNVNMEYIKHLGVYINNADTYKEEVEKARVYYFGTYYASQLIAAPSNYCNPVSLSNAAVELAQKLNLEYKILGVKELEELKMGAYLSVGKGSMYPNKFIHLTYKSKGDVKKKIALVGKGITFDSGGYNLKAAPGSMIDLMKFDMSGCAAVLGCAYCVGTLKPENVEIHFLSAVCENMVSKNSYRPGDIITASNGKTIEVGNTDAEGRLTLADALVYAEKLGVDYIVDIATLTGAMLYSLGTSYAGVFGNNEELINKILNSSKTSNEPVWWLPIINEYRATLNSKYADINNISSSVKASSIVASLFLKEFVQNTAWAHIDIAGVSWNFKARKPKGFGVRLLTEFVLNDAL

[13] = biological target: Aspartyl aminopeptidase (Plasmodium falciparum 3D7, UniProt Q8I2J3); experiment: Counterscreen for inhibitors of M1 and M17 aminopeptidases: QFRET-based biochemical high throughput dose response assay for inhibitors of the Plasmodium falciparum M18 Aspartyl Aminopeptidase (PFM18AAP). [Related PubChem assays: 1619 (Screening assay (M17LAP inhibitors).), 1445 (Screening assay (M1AAP inhibitors).)]
[14] = biological target: Procathepsin L (Homo sapiens, UniProt P07711); experiment: cathepsin L inhibitors, dose response, counter-screen for M1/M17 aminopeptidase inhibitor project, biochemical, QFRET, 1536-well (AID 2214)
[15] = biological target: T3, Probable nicotinate-nucleotide adenylyltransferase (Staphylococcus aureus (strain N315), UniProt P65502); type: functional, Staphylococcus aureus subsp. aureus N315;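 as to IC50 Mean: confirmatory dose-response retesting of NadD inhibitor hits first found in an ultra-high-throughput screen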
[16] = biological target: T3, Probable nicotinate-nucleotide adenylyltransferase; type: functional, Staphylococcus aureus subsp. aureus N315; settings: read-out: IC50_Mean
[17] = biological target: 5-hydroxytryptamine receptor 1A (Homo sapiens, UniProt P08908); type: functional
[18] = biological target: NADPH oxidase 1 (Homo sapiens, UniProt Q9Y5S8); experiment: Late-stage luminescence-based cell-based dose response assay to identify inhibitors of NADPH oxidase 1 (NOX1): Synthesized analogs 2.; type: functional
[19] = biological target: T4, E3 ubiquitin-protein ligase XIAP (Homo sapiens, UniProt P98170); experiment: Counter Screen using XIAP-Bir3 for Chemical Antagonists of Bir1/2 domains of IAP-family anti-apoptotic proteins. [Related pubchem assays (depositor defined):AID1018, AID1449, AID1514, AID1638, AID1749, AID1750, AID488957, AID488963]
[20] = biological target: T4, E3 ubiquitin-protein ligase XIAP; experiment: XIAP antagonists, biochemical, IAP family, fluorescence polarization (AID 1018); type: functional
[21] = biological target: Mitogen-activated protein kinase 10 (Homo sapiens, UniProt P53779); experiment: Dose response biochemical screening assay for inhibitors of c-Jun N-Terminal Kinase 3 (JNK3). [Related pubchem assays: 746 ]
[22] = biological target: Cytochrome P450 2C19 (Homo sapiens, UniProt P33261); experiment: Cytochrome panel assay with activity outcomes. Panel member name: p450-cyp2c19 Compounds with AC50 equal or less than 10 uM are considered active; type: functional; settings: read-out: AC50
[23] = biological target: Cytochrome P450 2C9 (Homo sapiens, UniProt P11712)
[24] = biological target: Nonstructural protein 1 (Influenza A virus, UniProt Q194T2); type: functional, Influenza A virus (A/California/07/2009(H1N1))
[25] = biological target: Ras and Rab interactor 1/Tyrosine-protein kinase ABL1 (Homo sapiens, UniProt P00519+Q13671); type: functional;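 also: biochemical TR-FRET dose-response test measuring inhibition of binding between Rin1 and Abl proteins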
[26] = THP-1 cell cytotoxicity, dose response, cytotoxicity control for Vif-APOBEC3G degradation inhibitor project, THP-1 cells (AID 1117359); type: functional; settings: Human immunodeficiency virus 1, THP-1
[27] = biological target: Glutathione-S-transferase (Schistosoma japonicum, UniProt Q26513); experiment: biotin-GST/anti-GST TR-FRET signal inhibitors, dose response, artefact control for Vif-APOBEC3G degradation inhibitor project, biochemical (AID 1117362); type: functional
[28] = biological target: T1, Sphingosine 1-phosphate receptor 2; experiment: Dose Response Cell Based Assay for Antagonists of the S1P2 Receptor. [Related pubchem assays: 856, 736 ]; type: functional
[29] = biological target: Large T antigen (Simian virus 40, UniProt P03070); type: functional, Betapolyomavirus macacae;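 also: Confirmatory-stage PubChem screen for compounds that inhibit SV40 T antigen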
[30] = half-maximal inhibitory concentration for glucagon-like peptide-1 release, STC-1 cell line, dose-response (AID 1117345); type: functional, cell-based
[31] = Glucagon-like peptide 1 release potency, NCI-H716 cell line, dose-response, half-maximal inhibitory concentration (AID 1117344); type: functional, cell-based

T1 sequence (O95136 whole entry): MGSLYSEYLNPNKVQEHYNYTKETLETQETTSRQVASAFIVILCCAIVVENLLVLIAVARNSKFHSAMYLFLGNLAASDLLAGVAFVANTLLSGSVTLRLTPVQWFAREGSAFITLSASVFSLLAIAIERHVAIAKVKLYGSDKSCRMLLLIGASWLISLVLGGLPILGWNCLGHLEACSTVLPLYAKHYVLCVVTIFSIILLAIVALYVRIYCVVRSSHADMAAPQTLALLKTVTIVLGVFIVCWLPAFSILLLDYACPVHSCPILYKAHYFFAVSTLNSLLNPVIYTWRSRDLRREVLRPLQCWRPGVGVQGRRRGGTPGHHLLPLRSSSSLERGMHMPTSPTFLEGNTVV
T4 sequence (P98170 whole entry): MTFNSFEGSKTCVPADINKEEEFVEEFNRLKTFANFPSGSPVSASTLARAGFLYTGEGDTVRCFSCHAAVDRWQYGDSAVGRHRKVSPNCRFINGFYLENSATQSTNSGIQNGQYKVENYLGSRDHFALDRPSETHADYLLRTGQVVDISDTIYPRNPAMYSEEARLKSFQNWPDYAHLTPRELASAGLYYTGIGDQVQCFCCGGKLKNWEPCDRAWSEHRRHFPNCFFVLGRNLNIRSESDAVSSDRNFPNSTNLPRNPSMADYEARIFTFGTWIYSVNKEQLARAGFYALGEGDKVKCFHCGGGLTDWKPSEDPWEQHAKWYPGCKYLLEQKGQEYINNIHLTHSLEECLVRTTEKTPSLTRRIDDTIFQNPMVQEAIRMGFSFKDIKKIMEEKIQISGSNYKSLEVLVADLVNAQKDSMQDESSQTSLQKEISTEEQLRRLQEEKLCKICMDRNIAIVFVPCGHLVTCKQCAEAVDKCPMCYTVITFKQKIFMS
T3 sequence (P65502 whole entry): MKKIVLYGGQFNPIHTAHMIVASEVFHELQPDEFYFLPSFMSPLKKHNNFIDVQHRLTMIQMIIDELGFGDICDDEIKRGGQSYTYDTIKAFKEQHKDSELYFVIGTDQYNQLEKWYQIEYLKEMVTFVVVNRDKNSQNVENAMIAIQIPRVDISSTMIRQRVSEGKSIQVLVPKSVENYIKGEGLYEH
5-hydroxytryptamine receptor 1A, sequence (P08908 whole entry): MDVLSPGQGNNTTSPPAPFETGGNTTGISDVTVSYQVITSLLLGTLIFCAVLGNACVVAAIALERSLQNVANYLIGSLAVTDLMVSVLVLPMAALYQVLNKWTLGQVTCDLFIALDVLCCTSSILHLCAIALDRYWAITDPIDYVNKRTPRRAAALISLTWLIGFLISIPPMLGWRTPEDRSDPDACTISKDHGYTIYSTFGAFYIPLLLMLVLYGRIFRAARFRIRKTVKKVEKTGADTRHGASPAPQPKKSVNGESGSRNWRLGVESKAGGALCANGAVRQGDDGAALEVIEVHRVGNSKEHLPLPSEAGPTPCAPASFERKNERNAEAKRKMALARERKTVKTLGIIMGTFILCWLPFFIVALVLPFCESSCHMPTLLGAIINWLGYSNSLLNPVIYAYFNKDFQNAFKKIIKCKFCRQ
Nonstructural protein 1, sequence (Q194T2 whole entry): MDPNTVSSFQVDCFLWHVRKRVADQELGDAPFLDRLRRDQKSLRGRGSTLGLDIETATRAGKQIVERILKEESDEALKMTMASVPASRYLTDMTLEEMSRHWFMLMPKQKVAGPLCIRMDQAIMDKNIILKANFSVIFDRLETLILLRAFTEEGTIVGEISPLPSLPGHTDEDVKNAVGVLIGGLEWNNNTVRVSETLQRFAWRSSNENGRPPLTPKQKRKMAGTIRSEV
Mitogen-activated protein kinase 10, sequence (P53779 whole entry): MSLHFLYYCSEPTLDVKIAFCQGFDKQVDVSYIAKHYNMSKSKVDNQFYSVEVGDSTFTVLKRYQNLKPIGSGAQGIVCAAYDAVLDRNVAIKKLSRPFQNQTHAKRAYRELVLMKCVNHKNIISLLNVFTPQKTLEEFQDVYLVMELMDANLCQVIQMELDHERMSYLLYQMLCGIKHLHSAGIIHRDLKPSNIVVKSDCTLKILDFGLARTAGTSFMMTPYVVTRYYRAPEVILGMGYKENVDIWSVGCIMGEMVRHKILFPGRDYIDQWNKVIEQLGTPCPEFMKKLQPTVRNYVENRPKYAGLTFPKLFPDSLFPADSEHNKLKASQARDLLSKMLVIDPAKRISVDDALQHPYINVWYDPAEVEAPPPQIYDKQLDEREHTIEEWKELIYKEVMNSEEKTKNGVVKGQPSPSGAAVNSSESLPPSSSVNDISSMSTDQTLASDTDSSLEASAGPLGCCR
Photoreceptor-specific nuclear receptor, sequence (Q9Y5X4 whole entry): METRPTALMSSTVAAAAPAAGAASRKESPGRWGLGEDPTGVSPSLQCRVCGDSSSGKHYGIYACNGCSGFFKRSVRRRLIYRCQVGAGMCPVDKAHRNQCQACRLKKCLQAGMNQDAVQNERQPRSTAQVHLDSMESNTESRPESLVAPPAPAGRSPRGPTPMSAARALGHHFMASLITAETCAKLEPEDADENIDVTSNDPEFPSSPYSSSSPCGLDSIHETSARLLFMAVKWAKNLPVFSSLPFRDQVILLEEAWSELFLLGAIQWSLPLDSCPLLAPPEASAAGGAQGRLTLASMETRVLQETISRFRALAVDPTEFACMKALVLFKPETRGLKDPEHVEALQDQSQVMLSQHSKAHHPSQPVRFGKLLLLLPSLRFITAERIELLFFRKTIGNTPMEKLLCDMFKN
Genome polyprotein, sequence (Q2Q167 whole entry): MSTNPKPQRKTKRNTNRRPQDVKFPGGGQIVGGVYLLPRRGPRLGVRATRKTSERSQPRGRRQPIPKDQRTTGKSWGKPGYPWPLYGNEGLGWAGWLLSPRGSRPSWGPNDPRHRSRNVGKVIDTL
Estrogen receptor beta, sequence (Q92731 whole entry): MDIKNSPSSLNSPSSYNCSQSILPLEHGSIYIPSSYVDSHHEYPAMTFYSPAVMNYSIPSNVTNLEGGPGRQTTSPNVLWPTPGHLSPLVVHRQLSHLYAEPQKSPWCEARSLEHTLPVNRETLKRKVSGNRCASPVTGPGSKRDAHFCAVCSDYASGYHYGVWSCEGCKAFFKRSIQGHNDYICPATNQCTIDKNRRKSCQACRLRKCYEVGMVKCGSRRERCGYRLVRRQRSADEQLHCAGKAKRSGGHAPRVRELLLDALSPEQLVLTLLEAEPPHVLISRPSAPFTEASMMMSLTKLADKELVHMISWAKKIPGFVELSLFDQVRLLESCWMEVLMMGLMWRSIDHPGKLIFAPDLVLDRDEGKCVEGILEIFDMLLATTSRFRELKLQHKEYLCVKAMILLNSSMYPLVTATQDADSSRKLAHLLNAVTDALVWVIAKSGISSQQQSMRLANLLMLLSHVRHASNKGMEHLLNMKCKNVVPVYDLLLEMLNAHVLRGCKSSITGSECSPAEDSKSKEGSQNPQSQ
Cytochrome P450 2C9, sequence (P11712 whole entry): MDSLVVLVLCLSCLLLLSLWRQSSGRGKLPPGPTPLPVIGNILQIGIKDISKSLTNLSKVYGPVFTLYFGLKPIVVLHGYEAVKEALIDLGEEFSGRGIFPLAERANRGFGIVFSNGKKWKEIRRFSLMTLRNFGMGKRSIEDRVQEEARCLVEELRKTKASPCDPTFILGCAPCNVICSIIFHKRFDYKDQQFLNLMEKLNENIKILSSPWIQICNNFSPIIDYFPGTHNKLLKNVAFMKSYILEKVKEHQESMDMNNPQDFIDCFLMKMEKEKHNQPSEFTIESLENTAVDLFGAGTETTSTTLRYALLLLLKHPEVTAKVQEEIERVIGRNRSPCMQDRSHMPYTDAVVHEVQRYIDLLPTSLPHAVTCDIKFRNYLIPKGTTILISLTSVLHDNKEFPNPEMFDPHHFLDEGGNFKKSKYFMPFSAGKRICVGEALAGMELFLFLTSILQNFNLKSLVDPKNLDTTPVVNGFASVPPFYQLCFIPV
Protein Tat, sequence (P04608 whole entry): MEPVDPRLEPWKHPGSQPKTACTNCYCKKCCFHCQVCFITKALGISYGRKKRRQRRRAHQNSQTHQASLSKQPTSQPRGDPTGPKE
Bcl-2-like protein 1, sequence (Q07817 whole entry): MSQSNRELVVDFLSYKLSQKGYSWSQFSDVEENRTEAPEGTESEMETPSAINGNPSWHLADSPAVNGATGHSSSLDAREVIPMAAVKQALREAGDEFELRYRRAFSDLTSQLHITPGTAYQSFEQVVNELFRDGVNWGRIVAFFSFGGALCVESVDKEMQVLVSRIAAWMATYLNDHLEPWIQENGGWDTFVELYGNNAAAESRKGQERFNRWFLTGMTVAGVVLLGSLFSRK
Induced myeloid leukemia cell differentiation protein Mcl-1, sequence (Q07820 whole entry): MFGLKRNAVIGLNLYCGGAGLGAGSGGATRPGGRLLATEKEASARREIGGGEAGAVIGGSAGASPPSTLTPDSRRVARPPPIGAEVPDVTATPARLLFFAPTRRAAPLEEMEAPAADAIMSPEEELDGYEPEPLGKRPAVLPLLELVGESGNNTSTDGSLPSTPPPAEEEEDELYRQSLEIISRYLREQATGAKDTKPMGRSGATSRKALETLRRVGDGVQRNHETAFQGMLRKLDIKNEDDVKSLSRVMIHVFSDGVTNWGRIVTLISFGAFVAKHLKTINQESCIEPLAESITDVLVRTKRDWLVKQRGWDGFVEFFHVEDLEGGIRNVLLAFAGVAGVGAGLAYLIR
Cytochrome P450 2C19, sequence (P33261 whole entry): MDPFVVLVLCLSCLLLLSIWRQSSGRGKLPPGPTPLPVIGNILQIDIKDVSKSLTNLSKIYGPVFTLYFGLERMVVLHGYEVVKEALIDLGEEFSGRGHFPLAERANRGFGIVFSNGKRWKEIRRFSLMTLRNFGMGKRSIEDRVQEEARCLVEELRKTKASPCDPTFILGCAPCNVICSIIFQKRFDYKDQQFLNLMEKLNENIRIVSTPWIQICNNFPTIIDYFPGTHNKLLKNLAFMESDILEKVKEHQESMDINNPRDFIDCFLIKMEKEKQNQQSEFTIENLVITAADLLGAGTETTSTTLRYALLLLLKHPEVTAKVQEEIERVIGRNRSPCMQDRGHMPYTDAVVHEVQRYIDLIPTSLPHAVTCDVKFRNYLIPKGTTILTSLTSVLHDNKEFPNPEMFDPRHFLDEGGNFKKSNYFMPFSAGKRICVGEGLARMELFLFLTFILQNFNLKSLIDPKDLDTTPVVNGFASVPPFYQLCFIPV

## CN(C)c1ccc(C#Cc2ccc3cc(CCO)oc(=O)c3c2)cc1
[1]
  IC50: > 39.8 µM (not active)
[2]
  IC50: > 39.8 µM (not active)

## Cc1ccc(C(=O)OCC(=O)c2cc(C)n(Cc3ccccc3)c2C)o1
[3]
  EC50: > 30 µM (not active)

## CCOC(=O)c1sc(NC(=S)NC(=O)C2CC2)cc1C
[4]
  IC50: > 49.8 µM (not active)

## Clc1cccc(C2Nc3cccc4cccc(c34)N2)c1
[5]
  IC50: 28.6 µM (not active)
[6]
  IC50: > 109 µM (not active)

## COc1ccc(-n2c(Cc3cccn3C)nnc2SCC(N)=O)cc1
[7]
  IC50: > 100 µM (active)
[8]
  IC50: > 100 µM (active)

## NC(=Nc1nc2ccccc2o1)NC(=O)c1ccccc1NC(=O)c1ccccc1
[9]
  IC50: > 50 µM (not active)
[10]
  IC50: > 50 µM (inconclusive)

## CCOc1ccc(NC(=O)N(C2CCCCC2)C2CCN(C(C)=O)CC2)cc1
[11]
  IC50: > 100 µM (active)

## Cc1ccc(Nc2nnc(SC/C(O)=C(\C#N)c3nc4ccccc4[nH]3)s2)c(C)c1
[12]
  IC50: 6.03 µM (active)
[13]
  IC50: > 73.5 µM (not active)
[14]
  IC50: > 59.6 µM (not active)
[15]
  IC50: 7.79 µM (active)
[16]
  IC50: 21.4 µM (active)

## CCOC(=O)c1oc2ccccc2c1NC(=O)c1cc(OC)cc(OC)c1
[17]
  EC50: > 50 µM (not active)

## CN1c2ccccc2Sc2cc(NC(=O)CCl)ccc21
[18]
  IC50: 0.653 µM (active)

## CCCNC(=O)c1cc(SC)ccc1Cl
[19]
  IC50: > 100 µM (inactive)
[20]
  IC50: > 100 µM (not active)

## Fc1ccc2nc3[nH]c4ccccc4c3nc2c1
[21]
  IC50: 18.4 µM (not active)
[22]
  AC50: 20 µM (inconclusive)
[23]
  AC50: 10 µM (inconclusive)

## CCc1cccc(NC(=O)CCCCCC2NC(=O)NC2C)c1 (stereo unspecified)
[24]
  IC50: 0.825 µM (active)
[25]
  IC50: 0.00897 µM (active)
[26]
  CC50: > 40 µM (active)
[27]
  IC50: 9.93 µM (active)

## O=C(O)c1sc2cc(C(F)(F)F)cnc2c1-c1cccnc1
[28]
  IC50: > 30 µM (not active)

## O=C1OC2(c3ccccc31)c1cc(I)c(O)c(I)c1Oc1c2cc(I)c(O)c1I [ERYTHROSINE]
[29]
  IC50: 13 µM (active)
[30]
  IC50: 2.93 µM (active)
[31]
  IC50: > 40 µM (inactive)

Reference: ChEMBL document CHEMBL1201862, “PubChem BioAssay data set” (2004)
